Data taken from US20150132328A1 (priority 2011, published 2015).
Like-named read-outs stand apart in the source and are kept apart here. Marks after values point to notes of the source that are not given here.

Key:
[1] = tested on: THP-1 cells
Source text: We proceeded to perform some related to the proliferative stimulation of the peptide in presence of other divalent cations such as magnesium, copper, and manganese.

[2] = tested on: CD4 co-receptor; conditions: With-A
Protocol: (§1) The Analysis was performed by flow cytometry, using fluorescence intensity histograms, which allowed us to identify three regions: expression negative, low and high.

[3] = tested on: CD8 co-receptor; conditions: With-A
Protocol: as §1

[4] = tested on: thymocytes
Protocol: For that, we made organ culture in agarose gels and a filter with pores of 5 micron to prevent migration of the thymocytes. The Apoptosis was quantified with 7AAD and it was evaluated by flow cytometry.

[5] = tested on: LR.4 lymphoma; conditions: LR.4 + IMMP
Source text: Thymus and spleen were studied since they correspond to lymphatic organs, liver which corresponds to the main organ to which the metastases of abdominal tumors and kidney are directed are directed by their high blood irrigation.

[6] = tested on: BMK-16myc cells tumor; conditions: for Metastases (animals with detected metastases/total number of animals): Tumor + IMMP
Source text: We used BMK-16myc cells which are baby mouse kidney cells immortalized with genes of 16 protein of the human papilloma virus (HPV) and the myc gene, which grow in mouse, are highly invasive and produce metastases rapidly. One million cells were implanted subcutaneously in the back of each mouse. […] Subsequently, the animals were sacrificed and the tumors under the back skin as well as thymus, spleen, liver and kidney were collected for histopathological examination.

[7] = tested on: rats with rheumatoid arthritis
Source text: This produces that in the third week appears edema of the cephalic and caudal extremities, which can be measured with a vernier. Inflammation is due to the presence of the own autoimmune response against […] of the rat.

[8] = tested on: human lymphocytes
[9] = tested on: antibodies against Newcastle; conditions: 10 ng/dose with Newcastle vaccine
[10] = tested on: lymphoma LR.4
[11] = tested on: platelets
[12] = tested on: platelets; conditions: three dosages

Peptide LEDGPKFL + Zinc [IMMP]
Concentration at which plateau / maximum response of stimulation is reached [1]: 10-10 M | Increase of potency by adding the ion (times) [1]: ~500 times | Increase of the potency of the peptide by zinc (times) [1]: more than 200 times | EC50 ([1]; read-out: Effective concentration 50): 0.01 nM | Expression Intensity of CD4, Fluorescence, High ([2]; [IMMP] 10^−6 M): 193.0 ± 3.3 arbitrary fluorescence intensity units | Expression Intensity of CD4, Fluorescence, Low ([2]; [IMMP] 10^−6 M): 72.9 ± 7.4 arbitrary fluorescence intensity units | Expression Intensity of CD4, Fluorescence, Negative ([2]; [IMMP] 10^−6 M): 5.0 ± 0.9 arbitrary fluorescence intensity units | Expression Intensity of CD4, Fluorescence, High ([2]; [IMMP] 10^−7 M): 188.4 ± 4.9 arbitrary fluorescence intensity units | Expression Intensity of CD4, Fluorescence, Low ([2]; [IMMP] 10^−7 M): 68.6 ± 8.0 arbitrary fluorescence intensity units | Expression Intensity of CD4, Fluorescence, Negative ([2]; [IMMP] 10^−7 M): 4.5 ± 0.9 arbitrary fluorescence intensity units | Expression Intensity of CD4, Fluorescence, High ([2]; [IMMP] 10^−8 M): 181.1 ± 4.7 arbitrary fluorescence intensity units | Expression Intensity of CD4, Fluorescence, Low ([2]; [IMMP] 10^−8 M): 71.0 ± 6.4 arbitrary fluorescence intensity units | Expression Intensity of CD4, Fluorescence, Negative ([2]; [IMMP] 10^−8 M): 4.7 ± 0.3 arbitrary fluorescence intensity units | Expression Intensity of CD4, Fluorescence, High ([2]; [IMMP] 10^−9 M): 196.1 ± 5.4 arbitrary fluorescence intensity units | Expression Intensity of CD4, Fluorescence, Low ([2]; [IMMP] 10^−9 M): 69.5 ± 5.0 arbitrary fluorescence intensity units | Expression Intensity of CD4, Fluorescence, Negative ([2]; [IMMP] 10^−9 M): 4.5 ± 0.1 arbitrary fluorescence intensity units | Expression Intensity of CD4, Fluorescence, High ([2]; [IMMP] 10^−10 M): 194.1 ± 10.0 arbitrary fluorescence intensity units | Expression Intensity of CD4, Fluorescence, Low ([2]; [IMMP] 10^−10 M): 69.6 ± 5.2 arbitrary fluorescence intensity units | Expression Intensity of CD4, Fluorescence, Negative ([2]; [IMMP] 10^−10 M): 5.0 ± 0.4 arbitrary fluorescence intensity units | Expression Intensity of CD4, Fluorescence, High ([2]; [IMMP] 10^−11 M): 196.1 ± 5.4 arbitrary fluorescence intensity units | Expression Intensity of CD4, Fluorescence, Low ([2]; [IMMP] 10^−11 M): 69.5 ± 7.0 arbitrary fluorescence intensity units | Expression Intensity of CD4, Fluorescence, Negative ([2]; [IMMP] 10^−11 M): 4.5 ± 0.1 arbitrary fluorescence intensity units | Expression Intensity of CD4, Fluorescence, High ([2]; [IMMP] 10^−12 M): 194.1 ± 7.3 arbitrary fluorescence intensity units | Expression Intensity of CD4, Fluorescence, Low ([2]; [IMMP] 10^−12 M): 69.6 ± 7.2 arbitrary fluorescence intensity units | Expression Intensity of CD4, Fluorescence, Negative ([2]; [IMMP] 10^−12 M): 5.0 ± 0.4 arbitrary fluorescence intensity units | Expression Intensity of CD8, Fluorescence, High ([3]; [IMMP] 10^−6 M): 135.9 ± 3.3 arbitrary fluorescence intensity units | Expression Intensity of CD8, Fluorescence, Low ([3]; [IMMP] 10^−6 M): 49.9 ± 37.4 arbitrary fluorescence intensity units | Expression Intensity of CD8, Fluorescence, Negative ([3]; [IMMP] 10^−6 M): 3.1 ± 0.5 arbitrary fluorescence intensity units | Expression Intensity of CD8, Fluorescence, High ([3]; [IMMP] 10^−7 M): 134.5 ± 4.9 arbitrary fluorescence intensity units | Expression Intensity of CD8, Fluorescence, Low ([3]; [IMMP] 10^−7 M): 55.1 ± 4.9 arbitrary fluorescence intensity units | Expression Intensity of CD8, Fluorescence, Negative ([3]; [IMMP] 10^−7 M): 2.4 ± 0.9 arbitrary fluorescence intensity units | Expression Intensity of CD8, Fluorescence, High ([3]; [IMMP] 10^−8 M): 126.1 ± 4.7 arbitrary fluorescence intensity units | Expression Intensity of CD8, Fluorescence, Low ([3]; [IMMP] 10^−8 M): 39.2 ± 5.4 arbitrary fluorescence intensity units | Expression Intensity of CD8, Fluorescence, Negative ([3]; [IMMP] 10^−8 M): 3.2 ± 0.3 arbitrary fluorescence intensity units | Expression Intensity of CD8, Fluorescence, High ([3]; [IMMP] 10^−9 M): 139.8 ± 5.4 arbitrary fluorescence intensity units | Expression Intensity of CD8, Fluorescence, Low ([3]; [IMMP] 10^−9 M): 32.7 ± 5.0 arbitrary fluorescence intensity units | Expression Intensity of CD8, Fluorescence, Negative ([3]; [IMMP] 10^−9 M): 3.2 ± 0.1 arbitrary fluorescence intensity units | Expression Intensity of CD8, Fluorescence, High ([3]; [IMMP] 10^−10 M): 126.5 ± 7.3 arbitrary fluorescence intensity units | Expression Intensity of CD8, Fluorescence, Low ([3]; [IMMP] 10^−10 M): 45.8 ± 3.2 arbitrary fluorescence intensity units | Expression Intensity of CD8, Fluorescence, Negative ([3]; [IMMP] 10^−10 M): 4.1 ± 0.4 arbitrary fluorescence intensity units | Expression Intensity of CD8, Fluorescence, High ([3]; [IMMP] 10^−11 M): 196.1 ± 5.4 arbitrary fluorescence intensity units | Expression Intensity of CD8, Fluorescence, Low ([3]; [IMMP] 10^−11 M): 56.5 ± 4.0 arbitrary fluorescence intensity units | Expression Intensity of CD8, Fluorescence, Negative ([3]; [IMMP] 10^−11 M): 3.5 ± 0.1 arbitrary fluorescence intensity units | Expression Intensity of CD8, Fluorescence, High ([3]; [IMMP] 10^−12 M): 194.1 ± 7.3 arbitrary fluorescence intensity units | Expression Intensity of CD8, Fluorescence, Low ([3]; [IMMP] 10^−12 M): 58.1 ± 3.2 arbitrary fluorescence intensity units | Expression Intensity of CD8, Fluorescence, Negative ([3]; [IMMP] 10^−12 M): 2.0 ± 0.4 arbitrary fluorescence intensity units | Thymocytes in apoptosis (%) ([4]; [IMMP] 10^−8): 1.6 ± 0.8 % | Thymocytes in apoptosis (%) ([4]; [IMMP] 10^−9): 1.7 ± 0.7 % | Thymocytes in apoptosis (%) ([4]; [IMMP] 10^−10): 1.5 ± 0.09 % | Thymocytes in apoptosis (%) ([4]; [IMMP] 10^−11): 2.5 ± 0.91% | Metastases (animals with metastases detected/total number of animals) ([5]; Kidney): 0/5 | Metastases (animals with metastases detected/total number of animals) ([5]; Liver): 0/5 | Metastases (animals with metastases detected/total number of animals) ([5]; Spleen): 0/5 | Metastases (animals with metastases detected/total number of animals) ([5]; Thymus): 0/5 | Metastases (animals with detected metastases/total number of animals) ([6]; Kidney): 0/5 | Metastases (animals with detected metastases/total number of animals) ([6]; Liver): 3/5 | Metastases (animals with detected metastases/total number of animals) ([6]; Spleen, 200 ng Kg i.p., 10 doses): 0/5 | Metastases (animals with detected metastases/total number of animals) ([6]; Thymus): 0/5 | Animals in which development of metastasis was reduced ([6]; mouse, in vivo): 40% | Tumor size vs untreated group ([6]; tendency to smaller tumors): not statistically significant | Animals with metastases in liver ([6]; tumor + IMMP (100% untreated)): 60% | Number of rats showing Inflammation 0% ([7]; AR + treatment): 3 | Number of rats showing Inflammation 50% ([7]; AR + treatment): 3 | Number of rats showing Inflammation 100% of palmar and plantar pad ([7]; AR + treatment): 6 | Number of rats showing Inflammation 0% ([7]; IMMP alone, no arthritis): 0 | Number of rats showing Inflammation 50% ([7]; IMMP alone, no arthritis): 0 | Number of rats showing Inflammation 100% of palmar and plantar pad ([7]; IMMP alone, no arthritis): 0 | Animals with inflammation reduced at 50% ([7]; rat, in vivo): 25% | Animals with inflammation reduced at 100% ([7]; rat, in vivo): 25% | Concentrations that increased the proliferative response [8]: 10-10 M | Antibody production against Newcastle (number of times the serum could be diluted with 100% of the response) ([9]; Day 13): 0 | Antibody production against Newcastle (number of times the serum could be diluted with 100% of the response) ([9]; Day 23): 18.0 | Antibody production against Newcastle (number of times the serum could be diluted with 100% of the response) ([9]; Day 30): 64.5 | Antibody production against Newcastle (number of times the serum could be diluted with 100% of the response) ([9]; Day 37): 60.2 | Reduction of tumor growth at long term ([10]; 10 doses for two weeks, from the fourth week): about 50% | Body weight (control percent) ([10]; IMMP alone, no tumor, week 0): 100 ± 3% | Body weight (control percent) ([10]; IMMP alone, no tumor, week 8): 101 ± 3% | Body weight (control percent) ([10]; IMMP alone, no tumor, week 12): 99 ± 4% | Body weight (control percent) ([10]; IMMP alone, no tumor, week 16): 101 ± 4% | Body weight (control percent) ([10]; IMMP alone, no tumor, week 20): 102 ± 3% | Body weight (control percent) ([10]; IMMP alone, no tumor, week 24): 100 ± 3% | Body weight (control percent) ([10]; IMMP alone, no tumor, week 28): 100 ± 2% | Body weight (control percent) ([10]; IMMP alone, no tumor, week 32): 100 ± 5% | Body weight (control percent) ([10]; IMMP alone, no tumor, week ±4): 102 ± 4% | Body weight (control percent) ([10]; LR.4 + IMMP, week 0, 200 ng/Kg i.p., ten doses): 100 ± 2% | Body weight (control percent) ([10]; LR.4 + IMMP, week 8): 106 ± 3 % | Body weight (control percent) ([10]; LR.4 + IMMP, week 12): 118 ± 7 % | Body weight (control percent) ([10]; LR.4 + IMMP, week 16): 120 ± 9 % | Body weight (control percent) ([10]; LR.4 + IMMP, week 20): 119 ± 9 % | Body weight (control percent) ([10]; LR.4 + IMMP, week 24): 120 ± 8 % | Body weight (control percent) ([10]; LR.4 + IMMP, week 28): 119 ± 11 % | Body weight (control percent) ([10]; LR.4 + IMMP, week 32): 120 ± 13 % | Body weight (control percent) ([10]; LR.4 + IMMP, week ±4): 115 ± 5 % | Body weight relative to control ([10]; tumor + IMMP, thirty day (untreated 25% higher)): almost equal to that of the control | Increase in blood platelets ([11]; normal animals): ~100% | Platelets ([11]; normal rats): 1560 ± 248* 10^3/μL | Platelets ([12]; CC14 + IMMP, pretreatment 50 ng/kg each third day): 886 + 110^# 10^3/μL | Platelets ([12]; IMMP alone, no CCI4, 50 ng/kg each third day): 1560 + 248* 10^3/μL
